Read-outs that look alike come from different tables or passages of the source.
Legend:
[1] = tested on: HIVNL4-3 passaged in the presence of 8 μM L-chicoric acid; assay: Cytopathicity assay against virus passaged in 8 μM L-chicoric acid; type: cell-based, HIV; details: FIG. 14
Protocol: HIVNL4-3 plasmid (a gift from Dr. P. Krogstad, UCLA, Los Angeles, Calif.), was transfected in HeLa cells using Lipofectin® (Gibco/BRL). Excess DNA was removed by washing and cells were co-cultured with H9 cells for 18 hours. The H9 cells were removed and re-cultured in growth medium. When the culture was 100% positive for HIV antigens by indirect immunofluorescence, the virus was inoculated onto H9 cells and incubated at 37° C. for several weeks in the presence of 2 μM L-chicoric acid. When this culture was 100% positive the virus was isolated and one aliquot was passaged in a similar manner in 4 μM L-chicoric acid. Finally, virus was cultured in the presence of 8 μM L-chicoric acid and the resultant virus filter-clarified, aliquoted, and stored at −70° C.
(§1) Cloning and sequencing of virus from the HIVNL4-3 passaged in the presence of 8 μM L-chicoric acid was undertaken to determine the molecular basis for resistance to L-chicoric acid and to isolate a resistant HIV clone.

HIV-1NL4-3 = assay: Anti-HIV cytopathicity assay against parental molecular clone; type: cell-based
Protocol: as §1
Assays, as described above, to determine the ED50 for a given compound against the molecular clone HIVNL4-3clone1-D4 and the parental clone HIVNL4-3 give an indication of the selectivity of the compound for inhibition of HIV replication through IN. Resistance to a compound, as measured by an increased ED50, by clone HIVNL4-3clone1-D4, implies selectivity of the compound for IN. Thus clone HIVNL4-3clone1-D4 can be used to screen candidate IN inhibitors for selectivity.

HIV-1NL4-3clone1-D4 = type: cell-based; details: for efficacy against the L-chicoric acid resistant clone: compared with parental HIVNL4-3
Protocol: as §1
This cloning was accomplished through site-directed mutagenesis introducing several silent mutations immediately upstream and downstream of the integrase gene. These mutations generated two unique restriction sites: an upstream SacII and a downstream XbaI (FIG. 15). Introduction of these mutations allowed the entire integrase gene with only minimal upstream and downstream nucleotides to be digested and “swapped” between drug-resistant and drug-sensitive clones.

HIV-1 IN = HIV-1 IN (Human immunodeficiency virus type 1 group M subtype B, UniProt P12497); details: read-out: IC50 (IN dependent disintegration); purified HIV IN, MnCl2
HIVLAI = assay: Anti-HIV assay, protection from HIV-induced cell death; type: cell-based; details: read-out: ED50 (concentration that inhibits HIV-induced cell death by 50%); HIVLAI, MT-2 cells, 72 hr
Protocol: Anti-HIV assays were performed as described above. […] The compounds were then two-fold serially diluted in triplicate. To each 50 μl of diluted compound, 50 μl of HIVLAI was added and the virus-drug mixture was incubated for 1 hr at 37° C. […] Final multiplicity of infection (MOI) was 1-5. Cells were harvested to quantitate cytopathic effect using a neutral red dye assay as described.

Row | Substance | resistance of passaged virus to the compound [1] | EC50 (HIV-1NL4-3; control virus passaged without inhibitor, FIG. 14, read-out: ED50 against HIVNL4-3 control virus) [µM] | EC50 (HIV-1NL4-3; mean of triplicate infections, read-out: ED50 HIVNL4-3) [µM] | efficacy against the L-chicoric acid resistant clone (HIV-1NL4-3clone1-D4) | efficacy against the L-chicoric acid resistant clone (HIV-1NL4-3clone1-D4; listed as L-chicoric acid) | EC50 (HIV-1NL4-3clone1-D4; mean of triplicate infections, read-out: ED50 HIVNL4-3clone1-D4) [µM] | IC50 (HIV-1 IN) [µM] | EC50 (HIVLAI) [µM]
1 | Dicaffeoyl-L-tartaric acid [Compound 1] | completely resistant | 0.4 | 0.78 | reduced efficacy | resistant | 61.2 | – | –
2 | Di-3,4-dihydrodihydroxybenzylidine succinic acid [Compound 38] | – | – | – | – | – | – | 0.858 | 4.4

From patent US20050049242A1 (priority 2000, published 2005)
